EC50 data for one compound are collected here from patent US8741922B2, “Solid forms of N-(4-(7-azabicyclo[2.2,1]heptan-7-yl)-2-trifluoromethyl)phenyl)-4-oxo-5-(trifluoromethyl)-1,4-dihydroquinoline-3-carboxamide” (Vertex Pharmaceuticals Incorporated, priority 2009, dated 2014).

For the test, the target named is T1, ΔF508-CFTR (Homo sapiens, UniProt P13569, DEL508-508).
T1 construct: expressed in transfected cells
The experiment in a line: Membrane potential optical assay for ΔF508-CFTR potentiation (FLIPR III, voltage sensing dyes). The class given is cell-based. Particulars: assay not explicitly tied to the value, ΔF508-CFTR NIH 3T3 cells. An excerpt:
Assays for Detecting and Measuring ΔF508-CFTR Potentiation Properties of Compounds
Membrane Potential Optical Methods for Assaying ΔF508-CFTR Modulation Properties of Compounds
The assay utilizes fluorescent voltage sensing dyes to measure changes in membrane potential using a fluorescent plate reader (e.g., FLIPR III, Molecular Devices, Inc.) as a readout for increase in functional ΔF508-CFTR in NIH 3T3 cells. The driving force for the response is the creation of a chloride ion gradient in conjunction with channel activation by a single liquid addition step after the cells have previously been treated with compounds and subsequently loaded with a voltage sensing dye.
To identify potentiators of ΔF508-CFTR, a double-addition HTS assay format was developed. This HTS assay utilizes fluorescent voltage sensing dyes to measure changes in membrane potential on the FLIPR III as a measurement for increase in gating (conductance) of ΔF508 CFTR in temperature-corrected ΔF508 CFTR NIH 3T3 cells. The driving force for the response is a Cl^− ion gradient in conjunction with channel activation with forskolin in a single liquid addition step using a fluorescent plate reader such as FLIPR III after the cells have previously been treated with potentiator compounds (or DMSO vehicle control) and subsequently loaded with a redistribution dye. […]

T1 sequence (P13569 with tags, fused parts or gaps DEL508-508): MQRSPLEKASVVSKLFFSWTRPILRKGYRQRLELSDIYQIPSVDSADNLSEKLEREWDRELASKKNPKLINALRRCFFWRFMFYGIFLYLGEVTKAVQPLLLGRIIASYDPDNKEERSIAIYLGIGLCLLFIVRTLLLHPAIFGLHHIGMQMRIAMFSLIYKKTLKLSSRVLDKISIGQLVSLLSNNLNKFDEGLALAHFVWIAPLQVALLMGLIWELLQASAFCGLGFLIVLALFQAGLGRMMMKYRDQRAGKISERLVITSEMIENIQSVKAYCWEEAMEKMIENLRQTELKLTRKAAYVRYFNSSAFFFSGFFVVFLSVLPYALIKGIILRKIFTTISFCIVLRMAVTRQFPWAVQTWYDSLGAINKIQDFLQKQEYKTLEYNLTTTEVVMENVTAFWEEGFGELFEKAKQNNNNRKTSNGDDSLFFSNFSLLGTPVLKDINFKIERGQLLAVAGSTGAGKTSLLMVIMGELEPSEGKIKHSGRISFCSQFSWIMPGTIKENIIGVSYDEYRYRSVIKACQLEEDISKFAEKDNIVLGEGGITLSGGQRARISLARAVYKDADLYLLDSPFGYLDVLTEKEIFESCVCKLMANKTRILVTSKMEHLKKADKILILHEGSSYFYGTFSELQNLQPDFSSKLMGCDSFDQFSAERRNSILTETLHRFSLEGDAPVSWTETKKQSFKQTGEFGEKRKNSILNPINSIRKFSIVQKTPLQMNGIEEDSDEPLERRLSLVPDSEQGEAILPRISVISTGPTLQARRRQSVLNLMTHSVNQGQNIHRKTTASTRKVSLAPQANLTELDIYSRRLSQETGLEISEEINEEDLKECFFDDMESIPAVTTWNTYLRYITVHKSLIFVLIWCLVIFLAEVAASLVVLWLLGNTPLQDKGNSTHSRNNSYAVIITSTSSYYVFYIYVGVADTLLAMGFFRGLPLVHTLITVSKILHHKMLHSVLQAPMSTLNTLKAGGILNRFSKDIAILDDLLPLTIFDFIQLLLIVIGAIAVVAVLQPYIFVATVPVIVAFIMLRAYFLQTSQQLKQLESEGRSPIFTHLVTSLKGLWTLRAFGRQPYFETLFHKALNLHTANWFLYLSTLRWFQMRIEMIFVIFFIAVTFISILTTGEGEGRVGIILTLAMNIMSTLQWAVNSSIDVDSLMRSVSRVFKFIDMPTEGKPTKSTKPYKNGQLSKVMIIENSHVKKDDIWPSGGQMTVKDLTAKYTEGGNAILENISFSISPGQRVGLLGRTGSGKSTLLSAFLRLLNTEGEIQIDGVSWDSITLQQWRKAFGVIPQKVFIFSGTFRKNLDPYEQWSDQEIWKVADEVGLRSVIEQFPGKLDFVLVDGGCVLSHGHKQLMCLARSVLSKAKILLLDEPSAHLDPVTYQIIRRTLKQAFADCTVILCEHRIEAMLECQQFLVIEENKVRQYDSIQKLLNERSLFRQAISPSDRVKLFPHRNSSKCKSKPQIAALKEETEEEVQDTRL

`O=C(Nc1ccc(N2C3CCC2CC3)cc1C(F)(F)F)c1c[nH]c2cccc(C(F)(F)F)c2c1=O` [Compound I, Form A, N-(4-(7-azabicyclo[2.2.1]heptan-7-yl)-2-(trifluoromethyl)phenyl)-4-oxo-5-(trifluoromethyl)-1,4-dihydroquinoline-3-carboxamide]: the EC50 (as a rule, the midpoint of the concentration-response curve) was below 2000 nM.
